# Tested on: Klebsiella pneumoniae (KPN) isolates
# Assay: MIC of compounds alone and combined with antibacterials, broth microdilution (CLSI)
# Format: cell-based
# Outline: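 First, log-phase suspensions are brought to a final 5·10^5 CFU/mL in cation-adjusted Mueller-Hinton broth. Then plates with compound, antibacterial, or both incubate 16-20 h at 35° C under ambient air. Finally, visual inspection gives the lowest growth-preventing concentration for each agent.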
smiles,measurement,setting,value
"C=CC1=C(C(=O)O)N2C(=O)[C@@H](NC(=O)/C(=N\OCC(=O)O)c3csc(N)n3)[C@H]2SC1 [FIX, Cefixime]",MIC ATB in combination,"KPN 190270, AF1 @ 8 μg/mL",<=0.25 μg/mL
same,MIC ATB in combination,"KPN 190425, AF1 @ 4 μg/mL",<=0.25 μg/mL
same,MIC ATB in combination,"KPN 190425, AF1 @ 8 μg/mL",<=0.25 μg/mL
same,MIC ATB in combination,"KPN 190551, AF1 @ 4 μg/mL",<=0.25 μg/mL
same,MIC ATB in combination,"KPN 190551, AF1 @ 8 μg/mL",<=0.25 μg/mL
same,MIC ATB in combination,"KPN 200047, AF1 @ 4 μg/mL",<=0.25 μg/mL
same,MIC ATB in combination,"KPN 200047, AF1 @ 8 μg/mL",<=0.25 μg/mL
same,MIC ATB in combination,"KPN 200327, AF1 @ 4 μg/mL",<=0.25 μg/mL
same,MIC ATB in combination,"KPN 200327, AF1 @ 8 μg/mL",<=0.25 μg/mL
same,MIC ATB in combination,"KPN 260251, AF1 @ 4 μg/mL",<=0.25 μg/mL
same,MIC ATB in combination,"KPN 260251, AF1 @ 8 μg/mL",0.5 µg/mL
same,MIC ATB in combination,"KPN 260252, AF1 @ 4 μg/mL",8 µg/mL
same,MIC ATB in combination,"KPN 260252, AF1 @ 8 μg/mL",4 µg/mL
same,MIC ATB in combination,"KPN 260376, AF1 @ 4 μg/mL",<=0.25 μg/mL
same,MIC ATB in combination,"KPN 260376, AF1 @ 8 μg/mL",<=0.25 μg/mL
same,MIC ATB in combination,"KPN 270077, AF1 @ 4 μg/mL",0.5 µg/mL
same,MIC ATB in combination,"KPN 270077, AF1 @ 8 μg/mL",<=0.25 μg/mL
same,MIC ATB in combination,"KPN 700603, AF1 @ 4 μg/mL",<=0.25 μg/mL
same,MIC ATB in combination,"KPN 700603, AF1 @ 8 μg/mL",<=0.25 μg/mL
same,MIC ATB in combination,"KPN ARA, AF1 @ 4 μg/mL",<=0.25 μg/mL
same,MIC ATB in combination,"KPN ARA, AF1 @ 8 μg/mL",<=0.25 μg/mL
same,MIC ATB in combination,"KPN BAA-1898, AF1 @ 4 μg/mL",<=0.25 μg/mL
same,MIC ATB in combination,"KPN BAA-1898, AF1 @ 8 μg/mL",<=0.25 μg/mL
same,MIC ATB in combination,"KPN LIB, AF1 @ 4 μg/mL",<=0.25 μg/mL
same,MIC ATB in combination,"KPN LIB, AF1 @ 8 μg/mL",<=0.25 μg/mL
same,MIC ATB in combination,"KPN UFR22_O, AF1 @ 4 μg/mL",<=0.25 μg/mL
same,MIC ATB in combination,"KPN UFR22_O, AF1 @ 8 μg/mL",<=0.25 μg/mL
same,MIC ATB in combination,"KPN UFR23, AF1 @ 4 μg/mL",<=0.25 μg/mL
same,MIC ATB in combination,"KPN UFR23, AF1 @ 8 μg/mL",<=0.25 μg/mL
same,MIC ATB in combination,"KPN UFR24, AF1 @ 4 μg/mL",0.5 µg/mL
same,MIC ATB in combination,"KPN UFR24, AF1 @ 8 μg/mL",0.5 µg/mL
same,MIC ATB in combination,"KPN UFR25, AF1 @ 4 μg/mL",<=0.25 μg/mL
same,MIC ATB in combination,"KPN UFR25, AF1 @ 8 μg/mL",<=0.25 μg/mL
same,MIC ATB in combination,"KPN UFR27, AF1 @ 4 μg/mL",16 µg/mL
same,MIC ATB in combination,"KPN UFR27, AF1 @ 8 μg/mL",2 µg/mL
same,MIC ATB in combination,"KPN UFR28, AF1 @ 4 μg/mL",<=0.25 μg/mL
same,MIC ATB in combination,"KPN UFR28, AF1 @ 8 μg/mL",<=0.25 μg/mL
same,MIC ATB in combination,"KPN UFR65, AF1 @ 4 μg/mL",<=0.25 μg/mL
same,MIC ATB in combination,"KPN UFR65, AF1 @ 8 μg/mL",<=0.25 μg/mL
same,MIC ATB in combination,"KPN UFR66, AF1 @ 4 μg/mL",1 µg/mL
same,MIC ATB in combination,"KPN UFR66, AF1 @ 8 μg/mL",0.25 µg/mL
same,MIC ATB in combination,"KPN UFR67, AF1 @ 4 μg/mL",2 µg/mL
same,MIC ATB in combination,"KPN UFR67, AF1 @ 8 μg/mL",0.5 µg/mL
same,MIC ATB in combination,"KPN UFR68, AF1 @ 4 μg/mL",1 µg/mL
same,MIC ATB in combination,"KPN UFR68, AF1 @ 8 μg/mL",0.25 µg/mL
same,MIC ATB in combination,"KPN UFR77, AF1 @ 4 μg/mL",16 µg/mL
same,MIC ATB in combination,"KPN UFR77, AF1 @ 8 μg/mL",8 µg/mL
same,MIC ATB in combination,"KPN UFR78, AF1 @ 4 μg/mL",128 µg/mL
same,MIC ATB in combination,"KPN UFR78, AF1 @ 8 μg/mL",32 µg/mL
same,MIC ATB in combination,"KPN UFR79, AF1 @ 4 μg/mL",16 µg/mL
same,MIC ATB in combination,"KPN UFR79, AF1 @ 8 μg/mL",4 µg/mL
same,MIC ATB in combination,"KPN UFR80, AF1 @ 4 μg/mL",<=0.25 μg/mL
same,MIC ATB in combination,"KPN UFR80, AF1 @ 8 μg/mL",<=0.25 μg/mL
same,MIC ATB in combination,"KPN UFR81, AF1 @ 4 μg/mL",16 µg/mL
same,MIC ATB in combination,"KPN UFR81, AF1 @ 8 μg/mL",2 µg/mL
same,MIC ATB in combination,"KPN UFR215, AF1 @ 4 μg/mL",<=0.25 μg/mL
same,MIC ATB in combination,"KPN UFR215, AF1 @ 8 μg/mL",<=0.25 μg/mL
same,MIC ATB in combination,"KPN UFR216, AF1 @ 4 μg/mL",<=0.25 μg/mL
same,MIC ATB in combination,"KPN UFR216, AF1 @ 8 μg/mL",<=0.25 μg/mL
same,MIC ATB in combination,"KPN UFR217, AF1 @ 4 μg/mL",<=0.25 μg/mL
same,MIC ATB in combination,"KPN UFR217, AF1 @ 8 μg/mL",<=0.25 μg/mL
same,MIC ATB in combination,"KPN UFR219, AF1 @ 4 μg/mL",<=0.25 μg/mL
same,MIC ATB in combination,"KPN UFR219, AF1 @ 8 μg/mL",<=0.25 μg/mL
same,MIC ATB in combination,"KPN UFR220, AF1 @ 4 μg/mL",4 µg/mL
same,MIC ATB in combination,"KPN UFR220, AF1 @ 8 μg/mL",2 µg/mL
same,MIC ATB in combination,"KPN UFR221, AF1 @ 4 μg/mL",2 µg/mL
same,MIC ATB in combination,"KPN UFR221, AF1 @ 8 μg/mL",<=0.25 μg/mL
same,MIC ATB in combination,"KPN UFR222, AF1 @ 4 μg/mL",32 µg/mL
same,MIC ATB in combination,"KPN UFR222, AF1 @ 8 μg/mL",16 µg/mL
same,MIC ATB in combination,"KPN UFR227O, AF1 @ 4 μg/mL",1 µg/mL
same,MIC ATB in combination,"KPN UFR227O, AF1 @ 8 μg/mL",0.5 µg/mL
